The values that follow come from patent publication US20210024545A1, “SUBSTITUTED DIAZAHETERO-BICYCLIC COMPOUNDS AND THEIR USE” (Bayer Aktiengesellschaft, priority 2016, published 2021).

In one test the target is human TASK-1 (Homo sapiens, UniProt O14649). The experiment in a line: Inhibition of recombinant TASK-1 in stably transfected CHO cells, KCl-induced depolarization, voltage-sensitive dye (B-2). The class given is cell-based. Also on record: expressed in transfected cells; host or cells: stably transfected CHO cells. The following applies: depolarization induced by 40 mM potassium chloride, some mean values from multiple determinations. As to the method:
(§1) B-2. Inhibition of Recombinant TASK-1 and TASK-3 In Vitro
(§2) The investigations on the inhibition of the recombinant TASK-1 and TASK-3 channels were conducted using stably transfected CHO cells. The compounds of the invention were tested here with administration of 40 mM of potassium chloride in the presence of a voltage-sensitive dye using the method described in detail in the following references [Whiteaker et al., Validation of FLIPR membrane potential dye for high-throughput screening of potassium channel modulators, J. Biomol. Screen. 6 (5), 305-312 (2001); Molecular Devices FLIPR Application Note: Measuring membrane potential using the FLIPR® membrane potential assay kit on Fluorometric Imaging Plate Reader (FLIPR®) systems, http://www.moleculardevices.com/reagents-supplies/assay-kits/ion-channels/flipr-membrane-potential-assay-kits]. The activity of the test substances was determined as their ability to inhibit a depolarization induced in the recombinant cells by 40 mM potassium chloride. The concentration which can block half of this depolarization is referred to as IC50).
(§3) Table 2 below lists the IC50 values from this assay determined for individual working examples of the invention (some as mean values from multiple independent individual determinations): […]

A further test has as its target human TASK-3 (Homo sapiens, UniProt Q9NPC2). The experiment in a line: Inhibition of recombinant TASK-3 in stably transfected CHO cells, KCl-induced depolarization, voltage-sensitive dye (B-2). The class given is cell-based. Also on record: expressed in transfected cells; host or cells: stably transfected CHO cells. As to conditions: depolarization induced by 40 mM potassium chloride, some mean values from multiple determinations. The method, then: as §1, §2, §3

Chain of human TASK-3 (Q9NPC2 whole entry): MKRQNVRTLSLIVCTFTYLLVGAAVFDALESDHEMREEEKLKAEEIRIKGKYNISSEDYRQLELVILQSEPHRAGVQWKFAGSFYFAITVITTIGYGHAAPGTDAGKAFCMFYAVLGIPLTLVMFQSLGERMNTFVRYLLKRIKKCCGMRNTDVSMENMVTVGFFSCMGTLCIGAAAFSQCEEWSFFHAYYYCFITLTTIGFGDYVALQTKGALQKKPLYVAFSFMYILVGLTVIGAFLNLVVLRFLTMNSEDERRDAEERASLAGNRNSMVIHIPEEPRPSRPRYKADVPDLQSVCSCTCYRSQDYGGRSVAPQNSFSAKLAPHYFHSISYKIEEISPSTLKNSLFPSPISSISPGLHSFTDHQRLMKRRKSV
Chain of human TASK-1 (O14649 whole entry): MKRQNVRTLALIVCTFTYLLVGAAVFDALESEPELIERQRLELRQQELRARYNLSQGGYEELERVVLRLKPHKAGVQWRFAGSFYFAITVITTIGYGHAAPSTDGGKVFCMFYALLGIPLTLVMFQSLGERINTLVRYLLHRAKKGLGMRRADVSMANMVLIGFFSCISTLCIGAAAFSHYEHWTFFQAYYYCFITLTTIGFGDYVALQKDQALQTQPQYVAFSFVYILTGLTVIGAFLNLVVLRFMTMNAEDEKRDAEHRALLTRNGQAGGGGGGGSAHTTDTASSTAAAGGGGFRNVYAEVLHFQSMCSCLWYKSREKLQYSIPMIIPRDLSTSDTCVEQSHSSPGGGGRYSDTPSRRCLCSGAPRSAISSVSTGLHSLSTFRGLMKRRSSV

With `COc1ccc(F)c(C(=O)N2CC3CCC2CN3Cc2c(-c3ccc(C(C)C)nc3)nc3ccccn23)n1` (single isomer, unassigned) [Example 127, (3-Fluoro-6-methoxypyridin-2-yl)(5-{[2-(6-isopropylpyridin-3-yl)imidazo[1,2-a]pyridin-3-yl]methyl}-2,5-diazabicyclo[2.2.2]oct-2-yl)methanone], the IC50 came to 9.45 µM on human TASK-1 and 0.67 µM on human TASK-3.

Turning to `COc1ccc(C)c(C(=O)N2CC3CCC2CN3Cc2c(-c3ccc(C(C)C)cc3)nc3ccccn23)n1` (single isomer, unassigned) [Example 137], the IC50 was 0.19 µM on human TASK-1 and 0.014 µM at human TASK-3.

Regarding `COc1ccc(C)c(C(=O)N2CC3CCC2CN3Cc2c(-c3ccc(Cl)cc3)nc3ccccn23)n1` (single isomer, unassigned) [Example 138], the IC50 at human TASK-1 was found to be 0.075 µM; at human TASK-3 it was 0.0068 µM.

For `COc1ccc(Cl)c(C(=O)N2C[C@@H]3CC[C@H]2CN3Cc2c(-c3ccc(Cl)cc3)nc3ccccn23)n1` (single isomer, unassigned; enantiomer 1) [Example 22], the values for the IC50 on human TASK-1 and on human TASK-3 were 0.17 µM and 0.013 µM, respectively.

For `COc1ccc(F)c(C(=O)N2C[C@@H]3CC[C@H]2CN3Cc2c(-c3ccc(Cl)cc3)nc3ccccn23)n1` (single isomer, unassigned; enantiomer 1) [Example 23], the values for the IC50 at human TASK-1 and at human TASK-3 were 0.79 µM and 0.17 µM, respectively.

Take `COc1ccc(Cl)c(C(=O)N2CC3CCC2CN3Cc2c(-c3ccc(Cl)cn3)nc3ccccn23)n1` (single isomer, unassigned; enantiomer 1) [Example 25, (3-Chloro-6-methoxypyridin-2-yl)(5-{[2-(5-chloropyridin-2-yl)imidaz[1,2-a]pyridin-3-yl]methyl}-2,5-diazabicyclo[2.2.2]oct-2-yl)methanone (enantiomer 1)]: the values for the IC50 on human TASK-1 and on human TASK-3 were 0.12 µM and 0.0056 µM, respectively.

Consider `O=C(c1cccc(OC(F)F)n1)N1CC2CCC1CN2Cc1c(-c2ccc(Cl)cn2)nc2ccccn12` (single isomer, unassigned; enantiomer 1) [Example 200, (5-{[2(5-Chloropyridin-2-yl)imidazo[1,2-a]pyridin-3-yl]methyl}-2,5-diazabicyclo[2.2.2]oct-2-yl)[6-(difluoromethoxy)pyridin-2-yl]methanone (enantiomer 1)], for which the IC50 came to 0.877 µM on human TASK-1 and 0.075 µM on human TASK-3.

On to `CC(C)(C)OC(=O)N1C2COCC1CN(Cc1c(-c3ccc(Cl)cc3)nc3ccccn13)C2` [Example 4, tert-Butyl 7-{[2-(4-chlorophenyl)imidazo[1,2-a]pyridin-3-yl]methyl}-3-oxa-7,9-diazabicyclo[3.3.1]nonane-9-carboxylate], for which the results for the IC50 on human TASK-1 and on human TASK-3 were 0.56 µM and 0.043 µM, respectively.

`CC(C)(C)OC(=O)N1CC2CCC(C1)N2Cc1c(-c2ccc(Br)cc2)nc2ccccn12` [Example 5]: the results for the 50% inhibitory concentration (IC50) on human TASK-1 and on human TASK-3 were 0.2 µM and 0.15 µM, respectively.

Consider `CC(C)(C)OC(=O)N1CC2CCC(C1)N2Cc1c(-c2ccc(Cl)cc2)nc2ccccn12` [Example 6], for which the IC50 at human TASK-1 came out at 0.394 µM; on human TASK-3, 0.41 µM.

In the case of `CC(C)(C)OC(=O)N1C2CCC1CN(Cc1c(-c3ccc(Cl)cc3)nc3ccccn13)C2` [Example 10], the 50% inhibitory concentration (IC50) is 1.09 µM at human TASK-1 and 0.23 µM at human TASK-3.

With `CC(C)(C)OC(=O)N1C2CCC1CN(Cc1c(-c3ccc(Br)cc3)nc3ccccn13)C2` [Example 11], the concentration for half-maximal inhibition (IC50) at human TASK-1 worked out at 1.4 µM; at human TASK-3, 0.94 µM.

For the molecule `CC(C)c1ccc(-c2nc3ccccn3c2CN2CC3CCC(C2)N3C(=O)OC(C)(C)C)cc1` [Example 12], the IC50 came to 3 µM on human TASK-1 and 8.3 µM at human TASK-3.

On to `CC(C)(C)OC(=O)N1C2CCC1CN(Cc1c(-c3ccc(Cl)cn3)nc3ccccn13)C2` [Example 14], for which the IC50 at human TASK-1 was 5.1 µM; on human TASK-3 it was 0.86 µM.

Take `COc1ccc(F)c(C(=O)N2C3COCC2CN(Cc2c(-c4ccc(Cl)cc4)nc4ccccn24)C3)n1` [Example 30, (7-{[2-(4-Chlorophenyl)imidazo[1,2a]pyridin-3-yl]methyl}-3-oxa-7,9-diazabicyclo[3.3.1]non-9-yl)(3-fluoro-6-methoxypyridin-2-yl)methanone]: the concentration for half-maximal inhibition (IC50) at human TASK-1 stood at 0.77 µM; at human TASK-3 it was 0.021 µM.

For the molecule `O=C(c1cccc(OC2CCC2)n1)N1C2COCC1CN(Cc1c(-c3ccc(Cl)cc3)nc3ccccn13)C2` [Example 31, (7-{[2-(4-Chlorophenyl)imidazo[1,2-a]pyridin-3-yl]methyl}-3-oxa-7,9-diazabicyclo[3.3.1]non-9-yl)[6-(cyclobutyloxy)pyridin-2-yl]methanone], the half-inhibitory concentration (IC50) on human TASK-1 turned out to be 0.31 µM; on human TASK-3 it was 0.026 µM.

Consider `COc1ccc(Cl)c(C(=O)N2C3COCC2CN(Cc2c(-c4ccc(Cl)cc4)nc4ccccn24)C3)n1` [Example 32, (3-Chloro-6-methoxypyridin-2-yl)(7-{[2-(4-chlorophenyl)imidazo[1,2-a]pyridin-3-yl]methyl}-3-oxa-7,9-diazabicyclo[3.3.1]non-9-yl)methanone], for which the values for the concentration for half-maximal inhibition (IC50) at human TASK-1 and on human TASK-3 were 0.27 µM and 0.0096 µM, respectively.

As to `O=C(c1ccccc1F)N1CC2CCC1CN2Cc1c(-c2ccc(Cl)cn2)nc2ccccn12` (stereo not shown) [Example 64], the half-maximal inhibitory concentration (IC50) at human TASK-1 was 0.28 µM; at human TASK-3, 0.017 µM.

For `COc1cccc(C(=O)N2CC3CCC2CN3Cc2c(-c3ccc(Cl)cn3)nc3ccccn23)n1` (stereo not shown) [Example 65], the results for the IC50 on human TASK-1 and on human TASK-3 were 2 µM and 0.46 µM, respectively.

For the molecule `O=C(c1ccccc1F)N1C2COCC1CN(Cc1c(-c3ccc(Cl)cc3)nc3ccccn13)C2` [Example 69], the half-maximal inhibitory concentration (IC50) was found to be 0.87 µM on human TASK-1 and 0.101 µM on human TASK-3.

`COc1cccc(C(=O)N2C3COCC2CN(Cc2c(-c4ccc(Cl)cc4)nc4ccccn24)C3)c1` [Example 70]: the figures for the IC50 at human TASK-1 and at human TASK-3 were 1.9 µM and 0.16 µM, respectively.

Turning to `O=C(C1CCCC1)N1C2COCC1CN(Cc1c(-c3ccc(Cl)cc3)nc3ccccn13)C2` [Example 71], the IC50 on human TASK-1 came out at 0.13 µM; on human TASK-3, 0.024 µM.

For `O=C(c1cccc(OC(F)(F)F)c1)N1C2COCC1CN(Cc1c(-c3ccc(Cl)cc3)nc3ccccn13)C2` [Example 72], the results for the IC50 at human TASK-1 and on human TASK-3 were 2 µM and 0.12 µM, respectively.

Consider `CC(C)c1ccccc1C(=O)N1C2COCC1CN(Cc1c(-c3ccc(Cl)cc3)nc3ccccn13)C2` [Example 73], for which the values for the IC50 at human TASK-1 and on human TASK-3 were 0.16 µM and 0.0096 µM, respectively.

Take `COc1ccc(Cl)c(C(=O)N2C3COCC2CN(Cc2c(-c4ccc(Cl)cc4)nc4ccccn24)C3)c1` [Example 74]: the 50% inhibitory concentration (IC50) on human TASK-1 is 0.33 µM; on human TASK-3, 0.023 µM.

In the case of `COc1ccc(F)cc1C(=O)N1C2COCC1CN(Cc1c(-c3ccc(Cl)cc3)nc3ccccn13)C2` [Example 75], the IC50 at human TASK-1 was 0.38 µM; on human TASK-3, 0.03 µM.

As to `CC(C)c1cccc(C(=O)N2C3COCC2CN(Cc2c(-c4ccc(Cl)cc4)nc4ccccn24)C3)c1` [Example 76], the concentration for half-maximal inhibition (IC50) at human TASK-1 was found to be 0.24 µM; on human TASK-3, 0.014 µM.

On to `O=C(c1cccc(OCC(F)(F)F)n1)N1C2COCC1CN(Cc1c(-c3ccc(Cl)cc3)nc3ccccn13)C2` [Example 77], for which the IC50 at human TASK-1 worked out at 0.81 µM; on human TASK-3, 0.044 µM.

With `O=C(C1CCOC1)N1C2COCC1CN(Cc1c(-c3ccc(Cl)cc3)nc3ccccn13)C2` (stereo not shown) [Example 78], the IC50 at human TASK-1 turned out to be 1.6 µM; on human TASK-3 it was 0.065 µM.
